In ChEMBL document CHEMBL4145615, “Indolyl Azaspiroketal Mannich Bases Are Potent Antimycobacterial Agents with Selective Membrane Permeabilizing Effects and in Vivo Activity” (J Med Chem, 2018):
Values after ≈ are worked out from the molar mass of the structure shown.

Each compound was assayed on Mycobacterium tuberculosis variant bovis BCG (assay: Antimycobacterial activity against Mycobacterium bovis BCG ATCC 35734 after 5 days by broth dilution method). Settings: ATCC 35734, 120 h.
Format: functional

| SMILES | MIC50 [µM] | MIC90 [µM] |
| --- | --- | --- |
| CCCCCCCCn1cc(CN2CC(c3ccccc3)C2)c2ccc(OC)cc21 | 2 (≈ 0.809 µg/mL) | 4 (≈ 1.62 µg/mL) |
| CCCCCCCCn1cc(CNCC2CCC3CC3C2)c2ccc(OC)cc21 (stereo not given) | 1.6 (≈ 0.635 µg/mL) | 2.3 (≈ 0.912 µg/mL) |
| CCCCCCCCn1ccc2cc(OCCCN3CCCCCC3)ccc21 | 1.9 (≈ 0.731 µg/mL) | 8 (≈ 3.08 µg/mL) |
| CCCCCCCCn1ccc2cc(OCCCN3CCCC3)ccc21 | 31 (≈ 11.1 µg/mL) | 48 (≈ 17.1 µg/mL) |
| CCCCCCCCn1cc(CN2CCC3(CCN(Cc4ccccc4)CC3)CC2)c2ccc(OC)cc21 | 2.3 (≈ 1.19 µg/mL) | 4.4 (≈ 2.27 µg/mL) |
| CCCCCCCCn1ccc2ccc(OCCCN3CCCCCC3)cc21 | 3.9 (≈ 1.5 µg/mL) | 12 (≈ 4.62 µg/mL) |
| CCCCCCCCn1cc(CNCC2CC3CC3C2)c2ccc(OC)cc21 (stereo not given) | 2 (≈ 0.765 µg/mL) | 4 (≈ 1.53 µg/mL) |
| COc1ccc2c(CN3CCCCC3)cn(CCCOCc3ccccc3)c2c1 | 46 (≈ 18.1 µg/mL) | > 50 |
| COc1ccc(OCCCn2cc(CN3CCCCC3)c3ccc(OC)cc32)cc1 | 34 (≈ 13.9 µg/mL) | > 50 |
| CCCCCCCCn1cc(CN2CCC(S(N)(=O)=O)CC2)c2ccc(OC)cc21 | 8 (≈ 3.49 µg/mL) | 22 (≈ 9.58 µg/mL) |
| COc1ccc(CCCn2cc(CN3CCCCC3)c3ccc(OC)cc32)cc1 | 18 (≈ 7.07 µg/mL) | 39 (≈ 15.3 µg/mL) |
| CCCCCCCCn1cc(CNC2CCC3(CC2)OCCO3)c2ccc(OC)cc21 | 3.6 (≈ 1.54 µg/mL) | 6.3 (≈ 2.7 µg/mL) |
| CCCCCCCCn1cc(CN2CCC3(CCO3)CC2)c2ccc(OC)cc21 | 2 (≈ 0.797 µg/mL) | 4 (≈ 1.59 µg/mL) |
| CCCCCCCCn1cc(CN2CCCC(=O)CC2)c2ccc(OC)cc21 | 17 (≈ 6.54 µg/mL) | 42 (≈ 16.2 µg/mL) |
| CCCCCCCCn1cc(CN2CCC3(C=Cc4ccccc43)CC2)c2ccc(OC)cc21 | 1 (≈ 0.457 µg/mL) | 2 (≈ 0.913 µg/mL) |
| CCCCCCCCn1ccc2cccc(OCCCN3CCCCC3)c21 | 5 (≈ 1.85 µg/mL) | 13 (≈ 4.82 µg/mL) |
| CCCCCCCCn1cc(CN2CC3COCC(C2)O3)c2ccc(OC)cc21 | 17 (≈ 6.81 µg/mL) | 30 (≈ 12 µg/mL) |
| COc1ccc2c(CN3CCC4(CC3)OCCO4)cn(CCCOc3ccc(F)cc3)c2c1 | 5 (≈ 2.27 µg/mL) | 11 (≈ 5 µg/mL) |
| COc1ccc2c(CN3CCC4(CC3)OCCCO4)cn(CCCc3ccccc3)c2c1 | 2.6 (≈ 1.13 µg/mL) | 9.8 (≈ 4.26 µg/mL) |
| CCCCCCCCn1cc(CN2CCC3(CC2)OCCO3)c2ccc(OCCC)cc21 | 3 (≈ 1.33 µg/mL) | 5 (≈ 2.21 µg/mL) |
| COc1ccc2c(CN3CCC4(CC3)OCCCO4)cn(CCCOCc3ccccc3)c2c1 | 2 (≈ 0.929 µg/mL) | 6 (≈ 2.79 µg/mL) |

| SMILES | MIC50 [µM] | MIC90 [µM] |
| --- | --- | --- |
| CCCCCCCCn1cc(CN2CCOC3(CCCOC3)C2)c2ccc(OC)cc21 (stereo not given) | 1.8 (≈ 0.772 µg/mL) | 6.3 (≈ 2.7 µg/mL) |
| COc1ccc2c(CN3CCC4(CC3)OCCO4)cn(CCCOCc3ccccc3)c2c1 | 16 (≈ 7.21 µg/mL) | 40 (≈ 18 µg/mL) |
| CCCCCCCCn1cc(CN2CCC3(CCc4ccccc43)CC2)c2ccc(OC)cc21 | 1 (≈ 0.459 µg/mL) | 2 (≈ 0.917 µg/mL) |
| CCCCCCCCn1ccc2cccc(OCCCN3CCCCCC3)c21 | 5 (≈ 1.92 µg/mL) | 11 (≈ 4.23 µg/mL) |
| COc1ccc2c(CN3CCC4(CC3)OCCO4)cn(CCCOc3ccc(C)c(C)c3)c2c1 | 4.6 (≈ 2.14 µg/mL) | 11 (≈ 5.11 µg/mL) |
| CCCCCCCCn1cc(CN2CCC3(CC2)OCCCO3)c2c([N+](=O)[O-])cccc21 | 10 (≈ 4.44 µg/mL) | 25 (≈ 11.1 µg/mL) |
| CCCCCCCCn1cc(CN2CCC3(CC2)OCCCO3)c2cc([N+](=O)[O-])ccc21 | 7 (≈ 3.11 µg/mL) | 18 (≈ 7.98 µg/mL) |
| COc1ccc2c(CN3CCCCC3)cn(CCCc3ccccc3)c2c1 | 36 (≈ 13.1 µg/mL) | > 50 |
| COc1ccc2c(CN3CCC4(CC3)OCCCO4)cn(CCCOc3ccc(C)c(C)c3)c2c1 | 1.7 (≈ 0.814 µg/mL) | 2.7 (≈ 1.29 µg/mL) |
| COc1ccc2c(CN3CCC4(CC3)OCCCO4)cn(CCCOc3ccc(C)cc3)c2c1 | 1.3 (≈ 0.604 µg/mL) | 2.6 (≈ 1.21 µg/mL) |
| COc1ccc2c(CN3CCCCC3)cn(CCCOc3ccccc3)c2c1 | 30 (≈ 11.4 µg/mL) | 50 (≈ 18.9 µg/mL) |
| CCCCCCCCn1cc(CN2CCCC3(CC2)OCCCS3)c2ccc(OC)cc21 (stereo not given) | 0.5 (≈ 0.229 µg/mL) | 1 (≈ 0.459 µg/mL) |
| CCCCCCCCn1ccc2cc(OCCCN3CCC4(CC3)OCCCO4)ccc21 | 14 (≈ 6.2 µg/mL) | 31 (≈ 13.7 µg/mL) |
| COc1ccc(OCCCn2cc(CN3CCC4(CC3)OCCCO4)c3ccc(OC)cc32)cc1 | 1.5 (≈ 0.721 µg/mL) | 3.5 (≈ 1.68 µg/mL) |
| COc1ccc2c(CN3CCC4(CC3)OCCCO4)cn(CCCCOc3ccccc3)c2c1 | 11 (≈ 5.11 µg/mL) | 25 (≈ 11.6 µg/mL) |
| COc1ccc2c(CN3CCC4(CC3)OCCO4)cn(CCCOc3ccc(C)cc3)c2c1 | 4.8 (≈ 2.16 µg/mL) | 11 (≈ 4.96 µg/mL) |
| CCCCCCCCn1ccc2cc(OCCCN3CCCCC3)ccc21 | 13 (≈ 4.82 µg/mL) | 40 (≈ 14.8 µg/mL) |
| CCCCCCCCn1cc(CN2CCCC3(CC2)OCCS3)c2ccc(OC)cc21 (stereo not given) | 0.7 (≈ 0.311 µg/mL) | 1.2 (≈ 0.534 µg/mL) |
| CCCCCCCCn1ccc2cc(OCCN3CCCCCC3)ccc21 | 2 (≈ 0.741 µg/mL) | 6 (≈ 2.22 µg/mL) |
| COc1ccc2c(CN3CCCCC3)cn(CCCOc3ccc(C)c(C)c3)c2c1 | 18 (≈ 7.32 µg/mL) | 25 (≈ 10.2 µg/mL) |
| CCCCCCCCn1cc(CN2CCC3(C2)CC3(F)F)c2ccc(OC)cc21 (stereo not given) | 13 (≈ 5.26 µg/mL) | 18 (≈ 7.28 µg/mL) |

| SMILES | MIC50 [µM] | MIC90 [µM] |
| --- | --- | --- |
| CCCCCCCCn1ccc2ccc(OCCCN3CCC4(CC3)OC[C@H](C)O4)cc21 | 11 (≈ 4.87 µg/mL) | 25 (≈ 11.1 µg/mL) |
| COc1ccc2c(CN3CCC4(CC3)OCCO4)cn(CCCCOc3ccccc3)c2c1 | 20 (≈ 9.01 µg/mL) | 41 (≈ 18.5 µg/mL) |
| CCCCCCCCn1cc(CN2CCOC3(CCCO3)C2)c2ccc(OC)cc21 (stereo not given) | 15 (≈ 6.22 µg/mL) | 46 (≈ 19.1 µg/mL) |
| CCCCCCCCn1cc(CN2CCC(=O)CC2)c2ccc(OC)cc21 | 17 (≈ 6.3 µg/mL) | 24 (≈ 8.89 µg/mL) |
| CCCCCCCCn1ccc2c(OCCCN3CCCC3)cccc21 | 18 (≈ 6.42 µg/mL) | 36 (≈ 12.8 µg/mL) |
| COc1ccc2c(CN3CCC4(CC3)OCCO4)cn(CCCc3ccccc3)c2c1 | 6 (≈ 2.52 µg/mL) | 18 (≈ 7.57 µg/mL) |
| CCCCCCCCn1cc(CN2CCC3(CC2)OCCCO3)c2ccc(OCc3ccccc3)cc21 | 2.2 (≈ 1.11 µg/mL) | 3.1 (≈ 1.56 µg/mL) |
| CCCCCCCCn1cc(CN2CCC3(CC2)OC(C)C(C)O3)c2ccc(OC)cc21 (stereo not given) | 0.7 (≈ 0.31 µg/mL) | 1.6 (≈ 0.708 µg/mL) |
| CCCCCCCCn1ccc2c(OCCCN3CCCCCC3)cccc21 | 9.5 (≈ 3.65 µg/mL) | 22 (≈ 8.46 µg/mL) |
| CCCCCCCCn1ccc2ccc(OCCCN3CCCC3)cc21 | 20 (≈ 7.13 µg/mL) | 42 (≈ 15 µg/mL) |
| CCCCCCCCn1cc(CNC2Cc3ccccc3C2)c2ccc(OC)cc21 | 4 (≈ 1.62 µg/mL) | – |
| CCCCCCCCn1cc(CN2CCCCC2)c2ccc(C#N)cc21 | 2 (≈ 0.703 µg/mL) | 6 (≈ 2.11 µg/mL) |
| CCCCCCCCn1cc(CN2CCCCC2)c2ccc(OC)cc21 | 7 (≈ 2.5 µg/mL) | 13 (≈ 4.64 µg/mL) |
| CCCCCCCCn1cc(CN2CCC3(CC2)OCCCO3)c2ccc(OCCC)cc21 | 0.7 (≈ 0.32 µg/mL) | 1.2 (≈ 0.548 µg/mL) |
| COc1ccc2c(CN3CCC4(CC3)OCCO4)cn(C/C=C/c3ccccc3)c2c1 | 15 (≈ 6.28 µg/mL) | 31 (≈ 13 µg/mL) |
| CCCCCCCCn1cc(CN2CCC3(CC2)OCCO3)c2ccc(C#N)cc21 | 2.5 (≈ 1.02 µg/mL) | 5 (≈ 2.05 µg/mL) |
| COc1ccc(CCCn2cc(CN3CCC4(CC3)OCCO4)c3ccc(OC)cc32)cc1 | 7.4 (≈ 3.33 µg/mL) | 17 (≈ 7.66 µg/mL) |
| COc1ccc2c(CN3CCC4(CC3)OCCCO4)cn(CCCOc3ccccc3)c2c1 | 1.3 (≈ 0.586 µg/mL) | 3.1 (≈ 1.4 µg/mL) |
| CCCCCCCCn1cc(CN2CCC3(CC2)OCCO3)c2ccc(OCc3ccccc3)cc21 | 4 (≈ 1.96 µg/mL) | 5.5 (≈ 2.7 µg/mL) |
| CCCCCCCCn1cc(CNC2CCC(=O)CC2)c2ccc(OC)cc21 | 15 (≈ 5.77 µg/mL) | 24 (≈ 9.23 µg/mL) |
| CCCCCCCCn1cc(CNCC2CCC3(CCCC3)O2)c2ccc(OC)cc21 (stereo not given) | 1.8 (≈ 0.768 µg/mL) | 4.6 (≈ 1.96 µg/mL) |
